Experiment: In vitro skin permeation (flux), modified Franz diffusion cells
Type: in vitro ADME, human
Conditions: as permeation enhancer, compared with other enhancers such as lauryl lactate
Description: In vitro skin permeation studies were conducted using modified Franz diffusion cells to determine the delivery of estrogens and progestins from various drug polymer matrices. The release liner was peeled off of the drug matrix layer. The drug matrix layer was then gently pressed onto the stratum corneum of heat separated epidermis from human cadaver skin. This skin membrane with the backing and drug matrix affixed thereto was then mounted between the two half-cells and fastened with a clamp. The receiver compartment was filled with 1% hydroxylpropylcyclodextrin in normal saline solution with 0.01% sodium azide. The temperature was maintained at 32° C. Samples were taken at preset intervals and assayed by HPLC. The flux was calculated from the slope of the cumulative amounts of the drug in the receiver compartment versus time.

SMILES: CC(O)C(=O)O (stereo not shown) [lactic acid]
- enhancing the transdermal flux of norelgestromin: particularly effective

— US20060121102A1, “Transdermal systems for the delivery of estrogens and progestins” (priority 2004, published 2006)
